The target in test [1] is Ubiquitin carboxyl-terminal hydrolase 7 (Homo sapiens, UniProt Q93009). In words: Inhibition of USP7 (unknown origin) using Ub-Rho as substrate preincubated for 30 mins followed by substrate addition and subsequent incubation in dark for 3 hrs by fluorescence assay.
Another test relates to HCT-116. The experiment in a line: Antiproliferative activity against human HCT116 cells expressing wild type p53 assessed as decrease in cell viability after 72 hrs by MTT assay. The conditions noted are these: HCT-116, 72 h. Background: Formazan colour is commonly taken as a measure of viable cells.
Another test relates to NCI-H1299. The experiment in a line: Antiproliferative activity against p53 deficient human NCI-H1299 cells assessed as decrease in cell viability after 72 hrs by MTT assay. In kind it is functional, cell-based. The conditions noted are these: NCI-H1299, 72 h.
Test [2] can be described thus: Antiproliferative activity against human […] cells expressing p53 mutant assessed as decrease in cell viability after 72 hrs by MTT assay. It is filed as functional, cell-based.

A word on the IC50: it is the concentration that inhibits the measured activity by half.

Chain of Ubiquitin carboxyl-terminal hydrolase 7 (Q93009 whole entry): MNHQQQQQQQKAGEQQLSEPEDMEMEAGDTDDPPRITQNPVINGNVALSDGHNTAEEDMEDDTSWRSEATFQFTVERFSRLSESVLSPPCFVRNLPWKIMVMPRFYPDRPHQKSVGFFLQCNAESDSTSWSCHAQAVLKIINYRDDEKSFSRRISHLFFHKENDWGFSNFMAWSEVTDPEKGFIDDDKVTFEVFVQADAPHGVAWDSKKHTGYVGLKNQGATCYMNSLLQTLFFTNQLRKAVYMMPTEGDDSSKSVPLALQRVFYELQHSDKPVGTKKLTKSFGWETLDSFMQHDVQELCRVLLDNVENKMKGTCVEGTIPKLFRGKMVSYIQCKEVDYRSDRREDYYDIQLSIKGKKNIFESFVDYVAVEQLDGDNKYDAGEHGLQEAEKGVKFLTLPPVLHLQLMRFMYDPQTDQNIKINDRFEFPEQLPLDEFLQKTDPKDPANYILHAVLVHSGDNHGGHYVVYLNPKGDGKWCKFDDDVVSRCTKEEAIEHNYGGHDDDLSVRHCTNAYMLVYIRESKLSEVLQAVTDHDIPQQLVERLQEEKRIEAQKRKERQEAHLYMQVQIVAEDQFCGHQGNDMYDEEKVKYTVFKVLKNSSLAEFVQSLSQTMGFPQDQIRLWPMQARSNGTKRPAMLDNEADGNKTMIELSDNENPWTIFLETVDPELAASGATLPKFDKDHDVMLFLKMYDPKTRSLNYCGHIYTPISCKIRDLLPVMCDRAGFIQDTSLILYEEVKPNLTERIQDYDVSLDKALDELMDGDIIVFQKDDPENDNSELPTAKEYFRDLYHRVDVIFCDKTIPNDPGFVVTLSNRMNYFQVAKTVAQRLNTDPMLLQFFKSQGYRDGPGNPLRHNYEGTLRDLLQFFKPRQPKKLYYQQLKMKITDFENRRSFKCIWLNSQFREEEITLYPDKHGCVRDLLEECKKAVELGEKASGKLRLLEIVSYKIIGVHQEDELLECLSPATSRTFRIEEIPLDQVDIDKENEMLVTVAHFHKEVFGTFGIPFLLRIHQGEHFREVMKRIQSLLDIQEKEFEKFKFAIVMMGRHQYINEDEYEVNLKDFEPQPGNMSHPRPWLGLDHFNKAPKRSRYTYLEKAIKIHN

For `CC(=O)c1ncc(Sc2cccc(Cl)c2Cl)s1`, the IC50 (in test [1]; in the test with HCT-116) was greater than 50 µM each time.

With `CC(O)c1nc([N+](=O)[O-])c(Sc2c(Cl)cncc2Cl)s1` (stereo unspecified), the results for the IC50 (in test [1]; with HCT-116) were 6.95 µM and 18.6 µM, respectively.

On to `CC(=O)c1nc([N+](=O)[O-])c(Sc2c(Cl)cccc2Cl)s1`, for which the IC50 in test [1] was found to be 4.49 µM; with HCT-116, 19.3 µM.

For the molecule `O=C(NCc1ccccc1)c1nc([N+](=O)[O-])c(Sc2c(Cl)cncc2Cl)s1`, the half-inhibitory concentration (IC50) worked out at 4.21 µM in test [1] and 13.5 µM in the test with HCT-116.

Regarding `CC(=O)c1nc([N+](=O)[O-])c(Sc2cccc(Cl)c2Cl)s1`, the IC50 in test [1] was found to be 9.93 µM; in the test on HCT-116, 9.29 µM.

With `CC(=O)c1nc([N+](=O)[O-])c(Sc2ccc(Cl)c(Cl)c2)s1`, the IC50 is 18 µM in test [1] and 16.4 µM with HCT-116.

As to `CC(=O)OC(C)c1nc([N+](=O)[O-])c(Sc2c(Cl)cncc2Cl)s1` (stereo unspecified), the IC50 in test [1] is greater than 50 µM; in the test with HCT-116 it was 24.8 µM.

As for `CC(=O)c1ncc(Sc2ccc(Cl)c(Cl)c2)s1`, the IC50 (in test [1]; in the test with HCT-116) was greater than 50 µM in each case.

On to `O=C(NCc1ccc(F)cc1)c1nc([N+](=O)[O-])c(Sc2c(Cl)cncc2Cl)s1`, for which the IC50 in test [1] amounted to 2.65 µM; in the test with HCT-116, 11.2 µM.

Consider `CC(NCc1ccccc1)c1nc([N+](=O)[O-])c(Sc2c(Cl)cncc2Cl)s1` (stereo unspecified), for which the values for the IC50 (in test [1]; in the test with HCT-116) were 26.8 µM and 11.8 µM, respectively.

`CC(=O)c1nc([N+](=O)[O-])c(NCc2ccc(Cl)c(Cl)c2)s1`: the IC50 (in test [1]; in the test on HCT-116) was greater than 50 µM throughout.

Take `COc1ccc(Sc2sc(C(C)=O)nc2[N+](=O)[O-])cc1OC`: the figures for the IC50 (in test [1]; with HCT-116) were greater than 50 µM and 24 µM, respectively.

In the case of `Cc1ccc(CNC(=O)c2nc([N+](=O)[O-])c(Sc3c(Cl)cncc3Cl)s2)cc1`, the IC50 in test [1] stood at 3.65 µM; in the test on HCT-116, 6.64 µM.

On to `O=C(Nc1ccccc1)c1nc([N+](=O)[O-])c(Sc2c(Cl)cncc2Cl)s1`, for which the IC50 in test [1] was 40.5 µM; in the test with HCT-116, 12.4 µM.

Regarding `CC(=O)c1nc([N+](=O)[O-])c(Sc2c(Cl)cncc2Cl)s1`, the IC50 in the test on NCI-H1299 stood at 6.21 µM; in test [1] it was 0.67 µM; in test [2], 11 µM; with HCT-116, 8.45 µM.

With `CC(=O)c1nc([N+](=O)[O-])c(Sc2ccc(Cl)cc2Cl)s1`, the figures for the IC50 (in test [1]; in the test with HCT-116) were 16.8 µM and 12.5 µM, respectively.

As for `O=C(NCc1cccc(F)c1)c1nc([N+](=O)[O-])c(Sc2c(Cl)cncc2Cl)s1`, the IC50 was found to be 3.68 µM in the test with NCI-H1299, 1.35 µM in test [1], 6.11 µM in test [2] and 6.36 µM in the test with HCT-116.

In the case of `CC(OC(=O)c1ccccc1)c1nc([N+](=O)[O-])c(Sc2c(Cl)cncc2Cl)s1` (stereo unspecified), the figures for the IC50 (in test [1]; with HCT-116) were greater than 50 µM and 12 µM, respectively.

Turning to `CCCC(=O)OC(C)c1nc([N+](=O)[O-])c(Sc2c(Cl)cncc2Cl)s1` (stereo unspecified), the IC50 in test [1] came out at 4.49 µM; in the test on HCT-116, 11.7 µM.

Take `COc1cccc(Sc2sc(C(C)=O)nc2[N+](=O)[O-])c1`: the IC50 in test [1] is greater than 50 µM; with HCT-116 it was 17.3 µM.

In the case of `CC(=O)c1nc([N+](=O)[O-])c(Sc2ccc(F)cc2F)s1`, the IC50 in test [1] is 6.12 µM; with HCT-116 it was 10.2 µM.

The values above are taken from ChEMBL document CHEMBL4000237, “Synthesis and biological evaluation of thiazole derivatives as novel USP7 inhibitors” (Bioorg Med Chem Lett, 2017).
